Results published in patent US9587223B2, “Protocols for making hepatocytes from embryonic stem cells” (Asterias Biotherapeutics, Inc., priority 2000, dated 2017).

Assays:
[1] = tested on: hES cells (embryoid bodies)
Procedure: In this experiment, hES cells were maintained on primary mouse embryonic fibroblasts in serum-free medium according to standard methods.
The EBs were fed every other day.
Various analogs of butyrate were also tested at 5 mM.

[2] = tested on: hES derived embryoid bodies; assay: Marker analysis by immunocytochemistry, PAS glycogen stain and BrdU labelling; type: cell-based, human; conditions: 20% FBS and 5 mM sodium n-butyrate
Procedure: The morphology of the differentiated cells was remarkably uniform, showing a large polygonal surface and binucleated center characteristic of mature hepatocytes.
On the sixth day after plating in the differentiation agent, the cells were analyzed for expression of markers by RT-PCR and immunocytochemistry. Glycogen content in these cells was determined using periodic acid Schiff stain. The number of cells in S phase of cell cycle was determined by incubating the cells with 10 μM BrdU on day 5 after plating, and subsequently staining with anti-BrdU antibody 24 hours later.

Structure (SMILES) | toxicity to cells ([1]; at 2.5-100 μM) | hepatocyte differentiation ([1]; at 10-50 nM) | hepatocyte differentiation and selection against other cell types ([1]; at 75-100 nM) | % positive cells, BrdU staining ([2]; 10 μM BrdU on day 5, stained 24 hours later) [%] | % positive cells, Glycogen staining ([2]; periodic acid Schiff stain) [%] | % positive cells, Albumin ([2]; sixth day after plating) [%] | % positive cells, CK8 ([2]; sixth day after plating) [%] | % positive cells, CK18 ([2]; sixth day after plating) [%] | % positive cells, CK19 ([2]; sixth day after plating) [%] | % positive cells, Desmin ([2]; sixth day after plating) [%] | % positive cells, α1-antitrypsin ([2]; sixth day after plating) [%] | % positive cells, α-fetoprotein ([2]; sixth day after plating) [%] | cell survival one day after plating ([1]; EBs plated in 20% FBS and 5 mM sodium butyrate)
CC(/C=C/C(=O)NO)=C\[C@@H](C)C(=O)c1ccc(N(C)C)cc1 [Trichostatin A] | toxic | ineffective | appeared both to induce hepatocyte differentiation, and to select against survival of other cell types |  |  |  |  |  |  |  |  |  | 
CCCC(=O)[O-].[Na+] [sodium n-butyrate] |  |  |  | 16 | 60 | 55 | 100 | 100 | 100 | 0 | 90 | 0 | large proportion of apparently dead cells
